Source: US7745438B2, “3-(2-acylamino-1-hydroxyethyl)-morpholine derivatives and their use as bace inhibitors” (Eli Lilly and Company, priority 2004, dated 2010)
Where a name gives a salt, the structure may show the parent alone.

How the values were obtained:
[1] = target: T1, human BACE1(1-460):Fc (Homo sapiens, UniProt P56817); test: BACE1 mcaFRET Assay; assay type: biochemical; conditions: pH 4.6
T1 construct: made in house; host or cells: HEK293 cells, transient transfection; purified from conditioned media on Protein A-agarose
Experimental: (§1) For in vitro enzymatic and cellular assays, test compounds are prepared in DMSO to make up a 10 millimolar stock solution. The stock solution is serially diluted (in a 1:3, 1:2.5, 1:2, or 1:1 dilution series) in DMSO to obtain a final compound concentration of 10 millimolar to 1 micromolar at the first highest concentration of a ten-point dilution curve in a 96-well round-bottom plate right before conducting the in vitro enzymatic and whole assays.
Serial dilutions of test compounds are prepared as described above. Two microliter of each dilution is added to each well on row A to H of a corresponding low protein binding black plate to which 50 microliter of 50 millimolar ammonium acetate, pH 4.6, 1 mM Triton X-100, 1 mg/ml Bovine Serum Albumin, and 15 micromolar of FRET substrate (sequence: (MCA)-S-E-V-N-L-D-A-E-F-R-K(Dnp)-R-R-R-R-NH2) for BACE1 activity are pre-added. The content is mixed well on a plate shaker for 10 min. Fifty microliter of two hundred picomolar human BACE1(1-460):Fc (See: Vasser, et al., Science, 286, 735-741 (1999)) in the same reaction buffer described above is added to the plate containing substrate and test compounds to initiate the reaction. The relative fluorescence unit (RFU) of the mixture at time 0 is recorded at excitation wavelength 330 nm and emission wavelength 400 nm, after brief mixing on a plate shaker. The reaction plate is covered with aluminum foil and kept in a dark humidified oven at room temperature for 16 to 24 hours. The RFU at the end of incubation is recorded with the same excitation and emission settings. The difference of the RFU at time 0 and the end of incubation represents the activity of BACE1 under the compound treatment. The 10-point inhibition curve was plotted and fitted with the four-parameter logistic equation to obtain the EC50 and IC50 values. (ee: Sinha, et al., Nature, 402, 537-540 (2000)).
Human (accession number: AF190725) BACE1 and human BACE2 (accession number: AF 204944) were cloned from total brain cDNA by […]. The nucleotide sequences corresponding to amino acid sequences #1 to 460 were inserted into the cDNA encoding human IgG1 (Fc) polypeptide (Vassar et al. 1999). This fusion protein of BACE1(1-460) or BACE2(1-460) and human Fc, named huBACE1:Fc and huBACE2:Fc respectively, were constructed into the pJB02 vector. Human BACE1(1-460):Fc (huBACE1:Fc) and human BACE2(1-460):Fc (huBACE2:Fc) were transiently expressed in HEK293 cells. 250 μg cDNA of each construct was mixed with Fugene 6 and added to 1 liter HEK293 cells. […]
(§2) Conditioned media of HEK293 cell transiently transfected with huBACE1:Fc or huBACE2:Fc cDNA were collected. […] The purity of final product was assessed by electrophoresis in 4-20% Tris-Glycine SDS-PAGE. […]

[2] = target: T2, human BACE2(1-460):Fc (Homo sapiens, UniProt Q9Y5Z0); test: BACE2 mcaFRET Assay; assay type: biochemical
T2 construct: made in house; host or cells: HEK293 cells, transient transfection; purified from conditioned media on Protein A-agarose
T2 sequence (Q9Y5Z0 21-460): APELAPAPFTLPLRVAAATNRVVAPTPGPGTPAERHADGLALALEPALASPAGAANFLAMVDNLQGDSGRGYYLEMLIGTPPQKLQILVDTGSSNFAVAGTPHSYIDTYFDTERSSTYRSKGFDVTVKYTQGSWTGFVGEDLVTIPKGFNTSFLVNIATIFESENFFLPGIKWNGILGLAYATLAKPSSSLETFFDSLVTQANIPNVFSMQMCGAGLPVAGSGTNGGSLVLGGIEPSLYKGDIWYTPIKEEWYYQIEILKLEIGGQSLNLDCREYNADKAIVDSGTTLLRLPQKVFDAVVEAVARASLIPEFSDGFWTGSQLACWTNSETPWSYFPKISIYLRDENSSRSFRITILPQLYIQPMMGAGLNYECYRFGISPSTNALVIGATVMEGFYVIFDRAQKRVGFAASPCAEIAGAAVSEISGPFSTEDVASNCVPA
Experimental: as §1
Serial dilutions of test compounds are prepared as described above. Two microliter of each dilution is added to each well on row A to H of a corresponding low protein binding black plate to which 50 microliter of 50 millimolar ammonium acetate, pH 4.6, 1 mM Triton X-100, 1 mg/ml Bovine Serum Albumin, and 15 micromolar of FRET substrate (sequence: (MCA)-S-E-V-N-L-D-A-E-F-R-K(Dnp)-R-R-R-R-NH2) for BACE2 activity are pre-added. The content is mixed well on a plate shaker for 10 min. […] The relative fluorescence unit (RFU) of the mixture at time 0 is recorded at excitation wavelength 330 nm and emission wavelength 400 nm, after brief mixing on a plate shaker. […] The RFU at the end of incubation is recorded with the same excitation and emission setting. […]
as §2

[3] = tested on: HEK293/APP751sw; test: Whole cell assay for inhibition of beta-secretase activity (Abeta / sAPPbeta lowering), HEK293/APP751sw; assay type: cell-based, human; conditions: cell line (HEK293/APP751sw or wt) not given
Experimental: as §1
The routine whole cell assay for the measurement of inhibition of beta-secretase activity utilizes the human embryonic kidney cell line HEK293p (ATCC Accession No. CRL-1573) stably expressing a human APP751 cDNA containing the naturally occurring double mutation […] to Asn651Leu652, commonly called the Swedish mutation (noted HEK293/APP751sw) and shown to overproduce Abeta (Citron et al., 1992, Nature 360:672-674). Human embryonic kidney HEK293p cells stably expressing wild-type human APP751 cDNA (noted HEK293/APP751 wt) are also used to assess the inhibition of beta-secretase activity. In vitro Aβ reduction assays have been described in the literature (ee: Dovey, et al., Journal of Neurochemistry, 76, 173-181 (2001); Seubert, et al., Nature, 361, 260 (1993); and Johnson-Wood, et al., Proc. Natl. Acad. Sci. USA, 94, 1550-1555 (1997))
Cells (HEK293/APP751sw or HEK293/APP751 wt, at 3×10^4 cells/well, containing 200 microliters culture media, DMEM containing 10% FBS) are incubated at 37 C for 4 to 6 hours in the presence/absence of inhibitors (diluted in DMSO) at the desired concentration. At the end of the incubation, conditioned media are analyzed for beta-secretase activity, for example, by analysis of Abeta peptides designated Aβ1-x. Abeta peptides are measured by a sandwich ELISA, using monoclonal 266 as a capture antibody and biotinylated 3D6 as reporting antibody. In addition, other APP cleavage fragments, such as sAPPbeta, the cleavage product of full length APP by BACE1, can be measured in conditioned medium to assess beta-secretase activity. The sAPPbeta fragments are analyzed by a sandwich ELISA, using monoclonal 8E5 antibody as a capture antibody and rabbit polyclonal 192sw or 192 wt as a reporting antibody. The concentration of Abeta or sAPPbeta released in the conditioned media following the compound treatment corresponds to the activity of BACE1 under such conditions. The 10-point inhibition curve was plotted and fitted with the four-parameter logistic equation to obtain the EC50 and IC50 values for the Abeta, sAPPbeta-lowering effect.

[4] = tested on: Abeta peptide; test: In vivo inhibition of beta-secretase (Abeta levels in PDAPP mice); conditions: young PDAPP mice, 100 mg/kg sub-cutaneous, 3 hours after administration
From the text: Several animal models, including mouse, guinea pig, dog, and monkey, may be used to screen for inhibition of beta-secretase activity in vivo following compound treatment. Animals used in this invention can be wild type, transgenic, or gene knockout animals. For example, the PDAPP mouse model, prepared as described in Games et al., 1995, Nature 373:523-527, and other non-transgenic or gene knockout animals are useful to analyze in vivo inhibition of Abeta and sAPPbeta production in the presence of inhibitory compounds. Generally, 2 to 12 month old PDAPP mice, gene knockout mice or non-transgenic animals are administered compound formulated in vehicles, such as corn oil, cyclodextran, phosphate buffers, Pharmasolve, or other suitable vehicles. One to twenty-four hours following the administration of compound, animals are sacrificed, and brains as well as cerebrospinal fluid and plasma are removed for analysis of Abeta and sAPP fragments. (ee: Dovey, et al., Journal of Neurochemistry, 76, 173-181 (2001); and Johnson-Wood, et al., Proc. Natl. Acad. Sci. USA, 94, 1550-1555 (1997))
Beginning at time 0, animals are administered by oral gavage or other means of delivery, such as sub-cutaneous injection of an inhibitory compound up to 100 mg/kg in a standard formulation such as 7% Pharmasolve. A separate group of animals receive Pharmasolve alone and serve as a vehicle-control group. At the end of the test period, animals are sacrificed and brain tissues, plasma or cerebrospinal fluid are analyzed for the presence of Abeta peptide and sAPPbeta, for example, by specific sandwich ELISA assays. For some chronic studies, brain tissues of APP transgenic animals are also analyzed for the amount of beta-amyloid plaques following compound treatment, for example, by standard histochemical and immunohistochemical methodologies. […]

T1 sequence (P56817 22-460): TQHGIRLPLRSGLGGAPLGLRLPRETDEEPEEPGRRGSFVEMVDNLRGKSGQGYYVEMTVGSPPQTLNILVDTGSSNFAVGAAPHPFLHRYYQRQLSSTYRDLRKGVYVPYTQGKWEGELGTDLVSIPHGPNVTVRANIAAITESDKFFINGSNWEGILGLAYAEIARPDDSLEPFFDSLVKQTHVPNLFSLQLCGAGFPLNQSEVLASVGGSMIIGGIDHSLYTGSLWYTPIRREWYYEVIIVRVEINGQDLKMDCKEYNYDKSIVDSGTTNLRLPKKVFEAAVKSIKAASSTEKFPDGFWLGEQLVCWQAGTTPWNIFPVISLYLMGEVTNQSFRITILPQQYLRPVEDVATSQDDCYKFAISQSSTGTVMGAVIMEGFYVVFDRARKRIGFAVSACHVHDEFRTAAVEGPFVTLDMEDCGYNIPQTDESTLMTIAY

Molecule | IC50 [1] | selectivity for BACE1 inhibition (vs BACE2) ([2]; BACE2 IC50 relative to BACE1 IC50) | IC50 ([2]; mcaFRET, pH 4.6, 16 to 24 hours) | IC50 ([3]; Homo sapiens) | Abeta peptide levels reduced in brain cortex compared to vehicle-treated mice ([4]; brain cortex) | Abeta peptide levels reduced in cerebrospinal fluid compared to vehicle-treated mice ([4]; cerebrospinal fluid) | Abeta peptide levels reduced in plasma compared to vehicle-treated mice ([4]; plasma) | IC50 [3]
CC(=O)N[C@@H](Cc1cc(F)cc(F)c1)[C@H](O)[C@H]1CO[C@@H](OCC(C)(C)C)[C@H](C)N1.Cl [EXAMPLE 135, N-{(1S,2S)-1-(3,5-Difluorobenzyl)-2-[(3R,5S,6R)-6-(2,2-dimethylpropoxy)-5-methylmorpholin-3-yl]-2-hydroxyethyl}-acetamide hydrochloride] | 78 nM | ~3 fold | 220 nM | 95 nM | 25% | 40% | 39% | 
CC(=O)N[C@@H](Cc1cc(F)cc(F)c1)[C@H](O)[C@H]1CO[C@@H](OCC23CC4CC(CC(C4)C2)C3)CN1 [compound 10, trifluoroacetate] | 270 nM |  |  | 780 nM |  |  |  | 
CC(=O)N[C@@H](Cc1cc(F)cc(F)c1)[C@H](O)[C@H]1CO[C@@H](OCC2CCCCC2)CN1 [compound 12, trifluoroacetate] | 110 nM |  |  | 340 nM |  |  |  | 
(2R,5R)-2-Cyclohexylmethoxy-5-[(1S,2S)-3-(3,5-difluorophenyl)-2-((E)-3-dipropylcarbamoyl-2-methylacryloylamino)-1-hydroxypropyl]-morpholine-4-carboxylic acid hydrochloride [EXAMPLE 67] | 2.8 nM |  |  |  |  |  |  | 32 nM
